These results are taken from patent publication US8193239B2, “Substituted 1-cyanoethylheterocyclylcarboxamide compounds” (AstraZeneca AB, priority 2009, dated 2012).

The test deals with Recombinant Human (rh) DPP1 (Homo sapiens, UniProt P53634). Briefly: Fluorescence Assay for Recombinant Human (rh) DPP1. The format is biochemical. To be noted: rhDPP1, substrate H-Gly-Arg-AMC, pH5.0, 22° C., pre-incubated 30-60 min; read-out: DPP1 activity, pIC50 (converted). As to the method: Fluorescence Assay for Recombinant Human (rh) DPP1
Chain of Recombinant Human (rh) DPP1 (P53634 231-394 limits assumed): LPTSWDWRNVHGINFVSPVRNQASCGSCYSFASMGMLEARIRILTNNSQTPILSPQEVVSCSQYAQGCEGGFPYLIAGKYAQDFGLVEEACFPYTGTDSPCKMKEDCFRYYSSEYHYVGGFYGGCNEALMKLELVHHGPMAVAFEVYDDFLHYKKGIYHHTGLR
Chain of Recombinant Human (rh) DPP1 (P53634 25-134 limits assumed): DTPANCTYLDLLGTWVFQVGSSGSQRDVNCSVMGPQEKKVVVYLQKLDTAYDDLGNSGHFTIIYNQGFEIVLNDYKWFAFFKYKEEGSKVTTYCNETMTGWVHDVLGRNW
Chain of Recombinant Human (rh) DPP1 (P53634 395-463 limits assumed): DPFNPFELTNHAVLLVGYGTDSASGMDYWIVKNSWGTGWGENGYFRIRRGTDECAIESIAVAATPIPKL
The activity of DPP1 was determined by measuring the enzymatic release of aminomethyl coumarin (AMC) from the peptide substrate (H-Gly-Arg-AMC), which leads to an increase in fluorescence intensity at λex=350 nm and λem=450 nm. The assay was carried out in black 384 well plates in a final volume of 50 μl at 22° C. The assay conditions contained the following: 25 mM piperazine buffer pH5.0; 50 mM NaCl, 5 mM DTT; 0.01% (v/v) Triton X-100; 100 μM H-Gly-Arg-AMC and rhDPP1 ([…]). […] A standard DPP1 inhibitor (vinyl sulfone, see below, or Example 24 from WO2009/074829) was used as a positive control in the assay. Routinely, inhibitors were pre-incubated with rhDPP1 for 30-60 min prior to the addition of the peptide substrate to start the reaction for a further 60 min at 22° C. After that the plates were immediately read in a fluorescence plate reader using the above emission and excitation wavelengths [modified from Kam, C M, Gotz, M G, Koot, G, McGuire, M J, Thiele, D L, Hudig, D & Powers, J C (2004). Arch Biochem Biophys, 427, 123-134 & McGuire, M J, Lipsky, P E & Thiele, D L (1992). Arch Biochem Biophys, 295, 280-288].

Counter-ions that a name gives are not always drawn.

In the case of `COc1ccc(-c2ccc(C[C@@H](C#N)NC(=O)C3(N)CCOCC3)cc2)cc1` [Example 20, (S)-4-Amino-N-(1-cyano-2-(4′-methoxybiphenyl-4-yl)ethyl)tetrahydro-2H-pyran-4-carboxamide], the IC50 was 0.794 nM. To `CS(=O)(=O)Oc1cccc(-c2ccc(C[C@@H](C#N)NC(=O)C3(N)CCOCC3)cc2)c1` [Example 12, (S)-4′-(2-(4-Aminotetrahydro-2H-pyran-4-carboxamido)-2-cyanoethyl)biphenyl-3-yl methanesulfonate] belongs 0.501 nM; to `CN1Cc2cc(-c3ccc(C[C@@H](C#N)NC(=O)C4(N)CCOCC4)cc3)cnc2C1=O` [Example 32, (S)-4-Amino-N-(1-cyano-2-(4-(6-methyl-7-oxo-6,7-dihydro-5H-pyrrolo[3,4-b]pyridin-3-yl)phenyl)ethyl)tetrahydro-2H-pyran-4-carboxamide], 5.01 nM. For `CN1Cc2ccc(-c3ccc(C[C@@H](C#N)NC(=O)C4(N)CCOCC4)cc3)cc2C1=O` [Example 30, (S)-4-Amino-N-(1-cyano-2-(4-(2-methyl-3-oxoisoindolin-5-yl)phenyl)ethyl)tetrahydro-2H-pyran-4-carboxamide trifluoroacetic acid salt], the IC50 was 5.01 nM. The same measure for `COCCn1c(=O)sc2ccc(-c3ccc(C[C@@H](C#N)NC(=O)C4(N)CCOCC4)cc3)cc21` [Example 9, (S)-4-Amino-N-(1-cyano-2-(4-(3-(2-methoxyethyl)-2-oxo-2,3-dihydrobenzo[d]thiazol-5-yl)phenyl)ethyl)tetrahydro-2H-pyran-4-carboxamide trifluoroacetic acid salt]: less than 0.316 nM. The same measure for `Cc1ccc(-c2ccc(C[C@@H](C#N)NC(=O)C3(N)CCOCC3)cc2)cc1C#N` [Example 18, (S)-4-Amino-N-(1-cyano-2-(3′-cyano-4′-methylbiphenyl-4-yl)ethyl)tetrahydro-2H-pyran-4-carboxamide trifluoroacetic acid salt]: 0.794 nM. The same measure for `CN1CCN(S(=O)(=O)c2ccc(-c3ccc(C[C@@H](C#N)NC(=O)C4(N)CCOCC4)cc3)cc2)CC1` [Example 29, (S)-4-Amino-N-(1-cyano-2-(4′-(4-methylpiperazin-1-ylsulfonyl)biphenyl-4-yl)ethyl)tetrahydro-2H-pyran-4-carboxamide]: 0.631 nM. With `COCCCn1c(=O)oc2ccc(-c3ccc(C[C@@H](C#N)NC(=O)C4(N)CCOCC4)cc3)cc21` [Example 11, (S)-4-Amino-N-(1-cyano-2-(4-(3-(3-methoxypropyl)-2-oxo-2,3-dihydrobenzo[d]oxazol-5-yl)phenyl)ethyl)tetrahydro-2H-pyran-4-carboxamide trifluoroacetic acid salt], the IC50 is less than 0.316 nM. To `N#C[C@H](Cc1ccc(-c2ccc3c(c2)CS(=O)(=O)C3)cc1)NC(=O)C1(N)CCOCC1` [Example 34, 4-Amino-N-{(1S)-1-cyano-2-[4-(2,2-dioxido-1,3-dihydro-2-benzothiophen-5-yl)phenyl]ethyl}tetrahydro-2H-pyran-4-carboxamide] belongs 1.26 nM; to `N#C[C@H](Cc1ccc(-c2ccc(S(=O)(=O)N3CCOCC3)cc2)cc1)NC(=O)C1(N)CCOCC1` [Example 27, (S)-4-Amino-N-(1-cyano-2-(4′-(morpholinosulfonyl)biphenyl-4-yl)ethyl)tetrahydro-2H-pyran-4-carboxamide trifluoroacetic acid salt], 1.58 nM; to `Cc1cc(-c2ccc(C[C@@H](C#N)NC(=O)C3(N)CCOCC3)cc2)ccc1C#N` [Example 19, (S)-4-Amino-N-(1-cyano-2-(4′-cyano-3′-methylbiphenyl-4-yl)ethyl)tetrahydro-2H-pyran-4-carboxamide trifluoroacetic acid salt], less than 0.316 nM.

Regarding `CS(=O)(=O)c1cccc(-c2ccc(C[C@@H](C#N)NC(=O)C3(N)CCOCC3)cc2)c1` [Example 23, (S)-4-Amino-N-(1-cyano-2-(3′-(methylsulfonyl)biphenyl-4-yl)ethyl)tetrahydro-2H-pyran-4-carboxamide trifluoroacetic acid salt], the IC50 is 0.631 nM. The same measure for `N#C[C@H](Cc1ccc(-c2ccc3c(c2)CNC3=O)cc1)NC(=O)C1(N)CCOCC1` [Example 15, (S)-4-Amino-N-(1-cyano-2-(4-(1-oxoisoindolin-5-yl)phenyl)ethyl)tetrahydro-2H-pyran-4-carboxamide]: 0.126 nM; for `N#C[C@H](Cc1ccc(-c2ccc(C(F)(F)F)cc2)cc1)NC(=O)C1(N)CCOCC1` [Example 1, (S)-4-Amino-N-(1-cyano-2-(4′-(trifluoromethyl)biphenyl-4-yl)ethyl)tetrahydro-2H-pyran-4-carboxamide]: 0.631 nM; for `COCCn1c(=O)oc2ccc(-c3ccc(C[C@@H](C#N)NC(=O)C4(N)CCOCC4)cc3)cc21` [Example 24, (S)-4-Amino-N-(1-cyano-2-(4-(3-(2-methoxyethyl)-2-oxo-2,3-dihydrobenzo[d]oxazol-5-yl)phenyl)ethyl)tetrahydro-2H-pyran-4-carboxamide trifluoroacetic acid salt]: 0.2 nM. `CN1C(=O)COc2ccc(-c3ccc(C[C@@H](C#N)NC(=O)C4(N)CCOCC4)cc3)cc21` [Example 10, (S)-4-Amino-N-(1-cyano-2-(4-(4-methyl-3-oxo-3,4-dihydro-2H-benzo[b][1,4]oxazin-6-yl)phenyl)ethyl)tetrahydro-2H-pyran-4-carboxamide trifluoroacetic acid salt]: the IC50 was less than 0.316 nM. To `N#Cc1cc(-c2ccc(C[C@@H](C#N)NC(=O)C3(N)CCOCC3)cc2)ccc1F` [Example 22, (S)-4-Amino-N-(1-cyano-2-(3′-cyano-4′-fluorobiphenyl-4-yl)ethyl)tetrahydro-2H-pyran-4-carboxamide] belongs less than 0.398 nM; to `N#C[C@H](Cc1ccc(-c2ccc(C(N)=O)c(F)c2)cc1)NC(=O)C1(N)CCOCC1` [Example 25, (S)-4-Amino-N-(2-(4′-carbamoyl-3′-fluorobiphenyl-4-yl)-1-cyanoethyl)tetrahydro-2H-pyran-4-carboxamide], 1.26 nM. To `N#C[C@H](Cc1ccc(-c2ccc(S(=O)(=O)N3CCC3)cc2)cc1)NC(=O)C1(N)CCOCC1` [Example 7, (S)-4-Amino-N-(2-(4′-(azetidin-1-ylsulfonyl)biphenyl-4-yl)-1-cyanoethyl)tetrahydro-2H-pyran-4-carboxamide trifluoroacetic acid salt] belongs 0.631 nM. The same measure for `COc1cc(-c2ccc(C[C@@H](C#N)NC(=O)C3(N)CCOCC3)cc2)ccn1` [Example 26, (S)-4-Amino-N-(1-cyano-2-(4-(2-methoxypyridin-4-yl)phenyl)ethyl)tetrahydro-2H-pyran-4-carboxamide]: 1.26 nM. Consider `CN1Cc2cc(-c3ccc(C[C@@H](C#N)NC(=O)C4(N)CCOCC4)cc3)ccc2C1=O` [Example 31, (S)-4-Amino-N-(1-cyano-2-(4-(2-methyl-1-oxoisoindolin-5-yl)phenyl)ethyl)tetrahydro-2H-pyran-4-carboxamide], for which the IC50 was 1.58 nM. The same measure for `CN1C(=O)Cc2ccc(-c3ccc(C[C@@H](C#N)NC(=O)C4(N)CCOCC4)cc3)cc21` [Example 21, (S)-4-Amino-N-(1-cyano-2-(4-(1-methyl-2-oxoindolin-6-yl)phenyl)ethyl)tetrahydro-2H-pyran-4-carboxamide]: 0.251 nM; for `CCS(=O)(=O)c1ccc(-c2ccc(C[C@@H](C#N)NC(=O)C3(N)CCOCC3)cc2)cc1` [Example 2, (S)-4-Amino-N-(1-cyano-2-(4′-(ethylsulfonyl)biphenyl-4-yl)ethyl)tetrahydro-2H-pyran-4-carboxamide]: 0.794 nM.

Regarding `Cn1c(=O)oc2ccc(-c3ccc(C[C@@H](C#N)NC(=O)C4(N)CCOCC4)cc3)cc21` [Example 17, (S)-4-amino-N-(1-cyano-2-(4-(3-methyl-2-oxo-2,3-dihydrobenzo[d]oxazol-5-yl)phenyl)ethyl)tetrahydro-2H-pyran-4-carboxamide], the IC50 is 0.316 nM. The same measure for `CC(C)S(=O)(=O)c1ccc(-c2ccc(C[C@@H](C#N)NC(=O)C3(N)CCOCC3)cc2)cc1` [Example 5, (S)-4-Amino-N-(1-cyano-2-(4′-(isopropylsulfonyl)biphenyl-4-yl)ethyl)tetrahydro-2H-pyran-4-carboxamide]: 1 nM; for `CS(=O)(=O)Oc1ccc(-c2ccc(C[C@@H](C#N)NC(=O)C3(N)CCOCC3)cc2)cc1` [Example 6, (S)-4′-(2-(4-Aminotetrahydro-2H-pyran-4-carboxamido)-2-cyanoethyl)biphenyl-4-yl methanesulfonate trifluoroacetic acid salt, methanesulfonate trifluoroacetic acid …]: 0.398 nM. The same measure for `N#Cc1cccc(-c2ccc(C[C@@H](C#N)NC(=O)C3(N)CCOCC3)cc2)c1` [Example 8, (S)-4-Amino-N-(1-cyano-2-(3′-cyanobiphenyl-4-yl)ethyl)tetrahydro-2H-pyran-4-carboxamide]: 0.794 nM. Turning to `N#C[C@H](Cc1ccc(-c2ccc3oc(=O)[nH]c3c2)cc1)NC(=O)C1(N)CCOCC1` [Example 33, (S)-4-Amino-N-(1-cyano-2-(4-(2-oxo-2,3-dihydrobenzo[d]oxazol-5-yl)phenyl)ethyl)tetrahydro-2H-pyran-4-carboxamide trifluoroacetatic acid salt], the IC50 was 0.398 nM.
